SMILES strings stand for the structures. pIC50: −log10 of the molar value. Counter-ions that a name gives are not always drawn.

The first assay concerns the target T1, Human recombinant PTP1B (Homo sapiens, UniProt P18031).
T1 construct: made in house
T1 sequence (P18031 1-435): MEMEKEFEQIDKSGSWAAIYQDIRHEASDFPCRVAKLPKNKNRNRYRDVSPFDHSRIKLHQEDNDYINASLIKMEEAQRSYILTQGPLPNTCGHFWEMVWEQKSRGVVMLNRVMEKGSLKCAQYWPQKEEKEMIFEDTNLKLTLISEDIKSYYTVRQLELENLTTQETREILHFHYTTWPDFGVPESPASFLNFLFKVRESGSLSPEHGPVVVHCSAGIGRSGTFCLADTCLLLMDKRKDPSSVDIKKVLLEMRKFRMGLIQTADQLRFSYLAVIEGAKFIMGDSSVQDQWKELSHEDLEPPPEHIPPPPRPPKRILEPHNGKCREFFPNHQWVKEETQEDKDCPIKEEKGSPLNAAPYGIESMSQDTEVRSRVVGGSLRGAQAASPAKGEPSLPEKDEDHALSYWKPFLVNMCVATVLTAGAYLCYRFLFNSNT
The assay can be described thus: Inhibition of tri-phosphorylated insulin receptor dodecaphosphopeptide dephosphorylation by hPTP1B (malachite green). The format is biochemical. As to conditions: compound at 2.5 uM; read-out: change of PTP1B activity (percent of phosphatase control).
On to `COC(=O)[C@H](Cc1ccccc1)Oc1ccc(-c2ccc(-c3c(Cc4ccccc4)oc4ccccc34)cc2)cc1` [Example 23, (2S)-2-[4'-(2-Benzyl-benzofuran-3-yl)-biphenyl-4-yloxy]-3-phenyl-propionic acid methyl ester], for which the inhibition at 2.5 µM was 36%.

The assay is the same for the next values; noted with them: recombinant PTP1B, dodecaphosphopeptide substrate.
Regarding `O=C(O)C(Cc1ccccc1)Oc1ccc(-c2ccc(-c3c(Cc4nccs4)sc4ccccc34)cc2)cc1` (centres unmarked) [Example 30, 3-Phenyl-2-[4'-(2-thiazole-2-ylmethyl-benzo[b]thiophene-3-yl)-biphenyl-4-yloxy]-propionic acid], the pIC50 was 5.94.
The same measure, in the same setting: as for `O=C(O)[C@H](Cc1ccccc1)Oc1ccc(-c2ccc(-c3c(Cc4ccccc4)oc4cccnc34)cc2)cc1` [Example 31, (2S)-2-[4'-(2-Benzyl-furo[2,3]pyridin-3-yl)-biphenyl-4-yloxy]-3-phenyl-propionic acid], the figure is 6.23; as for `O=C(O)[C@@H](Cc1ccccc1)Oc1ccc(-c2ccc(-c3c(Cc4ccccn4)sc4ccccc34)cc2)cc1` [Example 32, (2R)-3-phenyl-2-[4'-(2-pyridin-2-ylmethyl-benzo[b]thiophene-3-yl)-biphenyl-4-yloxy]-propionic acid sodium salt], 5.82; as for `O=C(O)[C@@H](Cc1ccccc1)Oc1ccc(-c2ccc(-c3c(Cc4ccccn4)sc4ccccc34)cc2)cc1` [Example 33, (2R)-3-phenyl-2-[4'-(2-pyridin-2-ylmethyl-benzo[b]thiophene-3-yl)-biphenyl-4-yloxy]-propionic acid], 5.81.
`Oc1ccc(-c2ccc(-c3c(Cc4ccccc4)sc4ccccc34)cc2)cc1Br` [Example 34, 4'-(2-Benzyl-benzo[b]thiophen-3-yl)-3-bromo-biphenyl-4-ol]: the pIC50 was 5.97.
On the same count and under the same terms, the result for `Oc1c(Br)cc(-c2ccc(-c3c(Cc4ccccc4)sc4ccccc34)cc2)cc1Br` [Example 35, 4'-(2-Benzyl-benzo[b]thiophen-3-yl)-3,5-dibromo-biphenyl-4-ol] reads 6.34; that for `O=C(O)COc1c(Br)cc(-c2ccc(-c3c(Cc4ccccc4)sc4ccccc34)cc2)cc1Br` [Example 39, [4'-(2-Benzyl-benzo[b]thiophene-3-yl)-3,5-dibromo-biphenyl-4-yloxy]acetic acid], 6.98.
For `O=C(O)COc1ccc(-c2ccc(-c3c(Cc4ccccc4)sc4ccccc34)cc2)cc1Br` [Example 40, [4'-(2-Benzyl-benzo[b]thiophene-3-yl)-3-bromo-biphenyl-4-yloxy]-acetic acid], the pIC50 was 6.44.
`O=C(O)[C@H](CCc1ccccc1)Oc1c(Br)cc(-c2ccc(-c3c(Cc4ccccc4)sc4ccccc34)cc2)cc1Br` [Example 41, (2S)-2-[4'-(2-Benzyl-benzo[b]-thiophen-3-yl)-3,5-dibromo-biphenyl-4-yloxy]-4-phenyl-butyric acid]: the pIC50 is 6.54.
Regarding `O=C(O)[C@@H](CCN1C(=O)c2ccccc2C1=O)Oc1c(Br)cc(-c2ccc(-c3c(Cc4ccccc4)sc4ccccc34)cc2)cc1Br` [Example 43, (2R)-2-[4'-(2-Benzyl-benzo[b]-thiophen-3-yl)-3,5-dibromo-biphenyl-4-yloxy]-4-(1,3-dioxo-1,3-dihydro-isoindol-2-yl)-butyric acid], the pIC50 is 7.36.
Same read-out and setting: as for `COC(=O)[C@@H](CCNC(=O)c1ccccc1C(=O)O)Oc1c(Br)cc(-c2ccc(-c3c(Cc4ccccc4)sc4ccccc34)cc2)cc1Br` [Example 44, N-{(3R)-3-[4'-(2-benzyl-benzo[b]thiophen-3-yl)-3,5-dibromo-biphenyl-4-yloxy]-3-methoxycarbonyl-propyl]-phthalamic acid], the figure is 7.27; as for `O=C(O)c1ccccc1C(=O)NCC[C@@H](Oc1c(Br)cc(-c2ccc(-c3c(Cc4ccccc4)sc4ccccc34)cc2)cc1Br)C(=O)O` [Example 45, N-{(3R)-3-[4'-(2-benzyl-benzo[b]thiophen-3-yl)-3,5-dibromo-biphenyl-4-yloxy]-3-carboxy-propyl]-phthalamic acid], 6.74; as for `O=C(O)C(Cc1ccccc1)Oc1ccc(-c2ccc(-c3c(Cc4ccccc4)sc4ccccc34)cc2)cc1-c1ccc(Cl)cc1` (centres unmarked) [Example 46, (2R')-2-[4-(2-benzyl-benzo[b]thiophene-3-yl)-4"-chloro-[1,1':3',1"]terphenyl-4'-yloxy]-3-phenyl-propionic acid], 7.28.
In the case of `O=C(O)[C@H](CCc1ccccc1)Oc1ccc(-c2ccc(-c3c(Cc4ccccc4)oc4ccccc34)cc2)cc1` [Example 47, (2S)-2-[4'-(2-benzyl-benzofuran-3-yl)-biphenyl-4-yloxy]-4-phenyl-butyric acid], the pIC50 was 6.65.
As to `O=C(O)[C@H](Cc1ccccc1)Oc1c(Br)cc(-c2ccc(-c3c(Cc4ccccc4)oc4ccccc34)cc2)cc1Br` [Example 49, (2S)-2-[4'-(2-benzyl-benzofuran-3-yl)-3,5-dibromo-biphenyl-4-yloxy]-3-phenyl-propionic acid], the pIC50 was 7.42.
Take `O=C(O)[C@H](Cc1ccccc1)Oc1ccc(-c2ccc(-c3c(Cc4ccccc4)oc4ccccc34)cc2)cc1Br` [Example 50, (2S)-2-[4'-(2-benzyl-benzofuran-3-yl)-3-bromo-biphenyl-4-yloxy]-3-phenyl-propionic acid]: the pIC50 was 7.25.
Still for that read-out and setting: the result for `CC(C)C[C@@H](Oc1c(Br)cc(-c2ccc(-c3c(Cc4ccccc4)oc4ccccc34)cc2)cc1Br)C(=O)O` [Example 51, (2R)-2-[4'-(2-benzyl-benzofuran-3-yl)-3,5-dibromo-biphenyl-4-yloxy]-4-methyl-pentanoic acid] reads 7.27.
Regarding `CCCCC(Oc1c(Br)cc(-c2ccc(-c3c(Cc4ccccc4)oc4ccccc34)cc2)cc1Br)C(=O)O` (centres unmarked) [Example 52, 2-[4'-(2-benzyl-benzofuran-3-yl)-3,5-dibromo-biphenyl-4-yloxy]-hexanoic acid], the pIC50 was 7.28.
`CC[C@H](Oc1c(Br)cc(-c2ccc(-c3c(Cc4ccccc4)oc4ccccc34)cc2)cc1Br)C(=O)O` [Example 53, (2S)-2-[4'-(2-benzyl-benzofuran-3-yl)-3,5-dibromo-biphenyl-4-yloxy]-butyric acid]: the pIC50 is 6.88.
Same read-out and setting: as for `CCCCCC[C@H](Oc1c(Br)cc(-c2ccc(-c3c(Cc4ccccc4)oc4ccccc34)cc2)cc1Br)C(=O)O` [Example 54, (2S)-2-[4'-(2-benzyl-benzofuran-3-yl)-3,5-dibromo-biphenyl-4-yloxy]-octanoic acid], the figure is 7.64.
For `COc1ccc(-c2cc(-c3ccc(-c4c(Cc5ccccc5)sc5ccccc45)cc3)cc(Br)c2OCC(=O)O)cc1OC` [Example 56, [4-(2-benzyl-benzo[b]-thiophen-3-yl)-5'-bromo-3",4"-dimethoxy[1,1';3',1"-terphenyl]-4'-yloxy]-acetic acid], the pIC50 was 7.33.
On to `COc1cccc(-c2cc(-c3ccc(-c4c(Cc5ccccc5)sc5ccccc45)cc3)cc(Br)c2OCC(=O)O)c1` [Example 57], for which the pIC50 was 7.55.
The same measure, in the same setting: as for `COc1cccc(-c2cc(-c3ccc(-c4c(Cc5ccccc5)sc5ccccc45)cc3)cc(-c3cccc(OC)c3)c2OCC(=O)O)c1` [Example 58], the figure is 7.60; as for `COc1ccc(-c2cc(-c3ccc(-c4c(Cc5ccccc5)sc5ccccc45)cc3)ccc2OCC(=O)O)cc1` [Example 59], 7.10; as for `COc1ccc(-c2cc(-c3ccc(-c4c(Cc5ccccc5)sc5ccccc45)cc3)ccc2OCC(=O)O)cc1OC` [Example 60], 7.15.

A word on the pIC50: it is −log10 of the IC50, conventionally taken in molar units.

(Values after patent publication EP1077967B1, “BIPHENYL OXO-ACETIC ACIDS USEFUL IN THE TREATMENT OF INSULIN RESISTANCE AND HYPERGLYCEMIA” (Wyeth, priority 1998, dated 1999).)
